ChEMBL document CHEMBL4602647, “Protective effects of 10,11-dihydro-5H-dibenzo[b,f]azepine hydroxamates on vascular cognitive impairment” (Eur J Med Chem, 2020)

Molecular target: T1, Histone deacetylase 7 (Homo sapiens, UniProt Q8WUI4)
T1 sequence (Q8WUI4 whole entry): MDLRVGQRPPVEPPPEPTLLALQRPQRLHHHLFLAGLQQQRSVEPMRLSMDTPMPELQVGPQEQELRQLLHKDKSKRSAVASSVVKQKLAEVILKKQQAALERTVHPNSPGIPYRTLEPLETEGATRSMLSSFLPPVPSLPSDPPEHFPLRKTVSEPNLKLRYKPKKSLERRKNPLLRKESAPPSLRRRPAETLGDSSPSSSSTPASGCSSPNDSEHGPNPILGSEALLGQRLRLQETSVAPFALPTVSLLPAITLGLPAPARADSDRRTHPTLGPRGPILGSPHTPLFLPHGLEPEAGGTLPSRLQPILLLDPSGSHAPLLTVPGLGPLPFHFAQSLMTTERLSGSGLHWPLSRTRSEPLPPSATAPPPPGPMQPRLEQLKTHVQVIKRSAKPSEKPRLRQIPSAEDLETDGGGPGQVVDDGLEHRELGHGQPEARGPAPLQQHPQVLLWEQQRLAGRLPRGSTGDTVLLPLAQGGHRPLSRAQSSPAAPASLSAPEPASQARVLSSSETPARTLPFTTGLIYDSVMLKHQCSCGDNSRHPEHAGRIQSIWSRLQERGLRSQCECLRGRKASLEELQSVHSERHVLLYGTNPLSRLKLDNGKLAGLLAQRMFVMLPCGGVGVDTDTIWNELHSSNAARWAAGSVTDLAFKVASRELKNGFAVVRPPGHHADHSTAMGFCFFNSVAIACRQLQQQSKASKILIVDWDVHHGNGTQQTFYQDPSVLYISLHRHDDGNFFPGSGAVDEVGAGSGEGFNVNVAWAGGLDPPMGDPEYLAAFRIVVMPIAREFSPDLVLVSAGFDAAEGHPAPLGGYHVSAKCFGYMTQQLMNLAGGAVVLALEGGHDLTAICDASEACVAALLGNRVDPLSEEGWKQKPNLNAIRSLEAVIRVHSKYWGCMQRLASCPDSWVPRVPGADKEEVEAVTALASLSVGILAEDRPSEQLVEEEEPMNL
Experiment: Inhibition of recombinant human N-terminal GST-tagged HDAC7 (518 to 991 residues) expressed in baculovirus infected insect cells using Boc-K(Ac)-AMC as substrate after 90 mins by fluorimetry analysis; call rule not given here

IC50: Not Active
Compound: O=C(/C=C/c1ccc(CNCCCN2c3ccccc3CCc3ccc(Cl)cc32)cc1)NO
